These results are taken from PMC12645083, “Microwave‐Enhanced Synthesis of 2‐Styrylquinoline‐4‐Carboxamides With Promising Anti‐Lymphoma Activity” (Archiv Der Pharmazie, 2025).

The test system of test [1] is SU-DHL-8. Description: In vitro antiproliferative activity, resazurin cell viability. The conditions noted are these: Homo sapiens, B lymphocyte, large cell lymphoma, 72 h of treatment, mean ± SEM. Format: cell-based. The procedure:
(§1) To test the newly synthesized compounds, various human cell lines were employed. HD‐MB03 cells were purchased from DSMZ (Braunschweig, Germany), while A549, MDA‐MB‐231, RPMI‐8420, SU‐DHL‐8, TOLEDO, VL51, SU‐DHL‐1, SU‐DHL‐18, and KM‐H2 were obtained from ATCC (Manassas, VA, USA). Cells were cultured in DMEM (for MDA‐MB‐231 and A549) or RPMI‐1640 (for RPMI‐8420, SU‐DHL‐8, TOLEDO, VL51, SU‐DHL‐1, SU‐DHL‐18, KM‐H2, and HD‐MB03) media (Gibco, Milan, Italy). Both media were supplemented with 115 units/mL penicillin G (Gibco, Milan, Italy), 115 µg/mL streptomycin (Invitrogen, Milan, Italy), and 10% fetal bovine serum (Invitrogen, Milan, Italy). Peripheral blood mononuclear cells (PBMCs) were isolated from healthy donors as previously described. For cytotoxicity assays, PBMCs were resuspended at 5 × 10⁵ cells/mL in complete RPMI medium with or without 2.5 µg/mL phytohemagglutinin (PHA) (Irvine Scientific) to stimulate T‐cell activation and proliferation. All cell lines were maintained at 37°C in a humidified atmosphere containing 5% CO₂. All compounds were dissolved in DMSO at a 10 mM stock concentration. For dose–response assays, cells were seeded in 96‐well plates at densities optimized for each cell line: HD‐MB03 at 10,000 cells/well, A549 at 4000 cells/well, and MDA‐MB‐231 at 7000 cells/well. All other cell lines were seeded at 20,000 cells/well in a final volume of 100 µL per well. After 24 h, cells were treated with a 6‐point serial dilution of compounds starting from 10 µM, in triplicate for statistical analysis. Seventy‐2 h posttreatment, 10 µL of resazurin solution (100 µg/mL) was added to each well, and cells were incubated for an additional 3–6 h. Fluorescence was measured using a Spark 10 M microplate reader (Tecan Group Ltd., Männedorf, Switzerland) with excitation at 535 nm and emission at 600 nm. The IC₅₀ was defined as the concentration of compound required to inhibit cell proliferation by 50% compared to cells treated with the highest DMSO concentration.
(§2) To test the newly synthesized compounds, various human cell lines were employed. HD-MB03 cells were purchased from DSMZ (Braunschweig, Germany), while A549, MDA-MB-231, RPMI-8420, SU-DHL-8, TOLEDO, VL51, SU-DHL-1, SU-DHL-18, and KM-H2 were obtained from ATCC (Manassas, VA, USA). Cells were cultured in DMEM (for MDA-MB-231 and A549) or RPMI-1640 (for RPMI-8420, SU-DHL-8, TOLEDO, VL51, SU-DHL-1, SU-DHL-18, KM-H2, and HD-MB03) media (Gibco, Milan, Italy). Both media were supplemented with 115 units/mL penicillin G (Gibco, Milan, Italy), 115 µg/mL streptomycin (Invitrogen, Milan, Italy), and 10% fetal bovine serum (Invitrogen, Milan, Italy). Peripheral blood mononuclear cells (PBMCs) were isolated from healthy donors as previously described. ^[1] For cytotoxicity assays, PBMCs were resuspended at 5 × 10⁵ cells/mL in complete RPMI medium with or without 2.5 µg/mL phytohemagglutinin (PHA) (Irvine Scientific) to stimulate T cell activation and proliferation. All cell lines were maintained at 37 °C in a humidified atmosphere containing 5% CO₂. All compounds were dissolved in DMSO at a 10 mM stock concentration. For dose–response assays, cells were seeded in 96-well plates at densities optimized for each cell line: HD-MB03 at 10,000 cells/well, A549 at 4,000 cells/well, and MDA-MB-231 at 7,000 cells/well. All other cell lines were seeded at 20,000 cells/well in a final volume of 100 µL per well. After 24 hours, cells were treated with a 6-point serial dilution of compounds starting from 10 µM, in triplicate for statistical analysis. Seventy-two hours post-treatment, 10 µL of resazurin solution (100 µg/mL) was added to each well, and cells were incubated for an additional 3–6 hours. Fluorescence was measured using a Spark 10M microplate reader (Tecan Group Ltd., Männedorf, Switzerland) with excitation at 535 nm and emission at 600 nm. […]
For orientation: The colour change of resazurin is a common sign of viable cells or microbes.

For test [2], the system named is MDA-MB-231. Described as above. Particulars: Homo sapiens, triple-negative breast cancer, 72 h of treatment, mean ± SEM. Format: cell-based. On the procedure:
as §1, §2

In test [3] the test system is HD-MB03. Described as above. The conditions noted are these: Homo sapiens, medulloblastoma cells, 72 h of treatment, mean ± SEM, at least three experiments. Format: cell-based. On the procedure: as §1, §2
Test [4] deals with RPMI-8402. Described as above. Format: cell-based. Particulars: Homo sapiens, T-lymphoblastic leukemia cells, 72 h of treatment, mean ± SEM. The procedure:
as §1, §2

Test [5] deals with A549. The description is as above. The test is classed as cell-based. Particulars: Homo sapiens, non-small cell lung cancer, 72 h of treatment, mean ± SEM. On the procedure:
as §1, §2

Test [6] has as its system panel of five tumor cell lines (HD-MB03, RPMI-8402, SU-DHL-8, A549, MDA-MB-231). Nature of the test: Antiproliferative activity, range over the panel of five tumor cell lines. The test is classed as cell-based. Particulars: Homo sapiens; range over the active cell lines of the five-line panel; 72 h. The procedure: The synthesized quinoline derivatives 4a–z and 4aa–ah were evaluated in vitro for their antiproliferative activity against a panel of five tumor cell lines (HD‐MB03, medulloblastoma; RPMI‐8402, T‐lymphoblastic leukemia; SU‐DHL‐8, B lymphocyte, large cell lymphoma; A549, non‐small cell lung cancer; MDA‐MB‐231, triple‐negative breast cancer) (Table 2). […] Replacing the 4‐Cl group with a trifluoromethyl group (4ac) reduced antiproliferative activity.
as §1

Test [7] relates to Ly10 (DLBCL). The conditions noted are these: Figure 1; cited from earlier work.
Test [8] relates to Ly1 (DLBCL). The conditions noted are these: Figure 1; cited from earlier work.
The test system of test [9] is TMD8 (DLBCL). Particulars: Figure 1; cited from earlier work.
Test [10] relates to VL51 (splenic B-cell lymphoma). The conditions noted are these: Figure 1; cited from earlier work.

Usually IC50 stands for the midpoint of a concentration-inhibition curve.

In the case of `Cc1cccc(/C=C/c2cc(C(=O)Nc3ccc(C(F)(F)F)cc3)c3ccccc3n2)c1` [4y, (E)-2-(3-methylstyryl)-N-(4-(trifluoromethyl)phenyl)quinoline-4-carboxamide], the 50% inhibitory concentration (IC50) in test [1] is 3.25 ± 0.23 µM; in test [2] it was 7.84 ± 0.65 µM; in test [3], 3.84 ± 0.22 µM; in test [4], 3.2 ± 0.19 µM; in test [5], 8.73 ± 0.74 µM; in [6], 3.2 to 8.97 µM.
Regarding `O=C(Nc1ccc(C(F)(F)F)cc1)c1cc(/C=C/c2ccc(Cl)cc2)nc2ccccc12` [4z, (E)-2-(4-chlorostyryl)-N-(4-(trifluoromethyl)phenyl)quinoline-4-carboxamide], the concentration for half-maximal inhibition (IC50) in test [1] is 4.77 ± 0.32 µM; in test [2] it was above 10 µM; in test [3] it was 6.73 ± 1.15 µM; in test [4], above 10 µM; in test [5] it was above 10 µM; in test [6], 3.2 to 8.97 µM.
Regarding `O=S(=O)(Nc1cccc2cccnc12)c1ccc(F)cc1` [CU-O47], the IC50 in test [7] and in test [8] was 700 nM each time.
For `C[C@H](Nc1ncnc2[nH]cnc12)c1cc2ccc(F)cc2nc1-c1ccccn1` [ACP-319], the figures for the 50% inhibitory concentration (IC50) in [9], in test [7] and in [10] were 150 nM, 800 nM and 3000 nM, respectively.
With `O=C(Nc1ccc(C(F)(F)F)cc1)c1cc(/C=C/c2ccc(Cl)c(Cl)c2)nc2ccccc12` [4ab, (E)-2-(3,4-dichlorostyryl)-N-(4-(trifluoromethyl)phenyl)quinoline-4-carboxamide], the half-inhibitory concentration (IC50) in test [1] is 6.54 ± 0.44 µM; in test [2] it was above 10 µM; in [3], 7.83 ± 0.98 µM; in test [4], above 10 µM; in test [5], above 10 µM; in test [6] it was 3.2 to 8.97 µM.
In the case of `COc1ccc(/C=C/c2cc(C(=O)Nc3ccc(Cl)cc3)c3ccccc3n2)cc1` [4ae, (E)-N-(4-chlorophenyl)-2-(4-methoxystyryl)quinoline-4-carboxamide], the 50% inhibitory concentration (IC50) is 4.67 ± 0.14 µM in test [1]; above 10 µM in test [2]; above 10 µM in test [3]; 6.41 ± 1.16 µM in test [4]; above 10 µM in [5].
For the compound `O=C(Nc1ccc([N+](=O)[O-])c(C(F)(F)F)c1)c1cc(/C=C/c2ccccc2)nc2ccccc12` [4j, (E)-N-(4-nitro-3-(trifluoromethyl)phenyl)-2-styrylquinoline-4-carboxamide], the half-inhibitory concentration (IC50) is 3.86 ± 0.44 µM in test [1]; above 10 µM in test [2]; 8.23 ± 0.47 µM in test [3]; above 10 µM in test [4]; above 10 µM in test [5]; 3.2 to 8.97 µM in [6].
`O=C(Nc1ccc([N+](=O)[O-])c(C(F)(F)F)c1)c1cc(/C=C/c2ccc(Cl)c(Cl)c2)nc2ccccc12` [4x, (E)-2-(3,4-dichlorostyryl)-N-(4-nitro-3-(trifluoromethyl)phenyl)quinoline-4-carboxamide]: the IC50 in test [1], in [2], in [3], in test [4] and in test [5] was above 10 µM each time.
On to `O=C(Nc1ccc(C(F)(F)F)cc1)c1cc(/C=C/c2cccc([N+](=O)[O-])c2)nc2ccccc12` [4ad, (E)-2-(3-nitrostyryl)-N-(4-(trifluoromethyl)phenyl)quinoline-4-carboxamide], for which the 50% inhibitory concentration (IC50) in test [1], in test [2], in test [3], in test [4] and in test [5] was above 10 µM in each case.
Consider `O=C(Nc1ccccc1)c1cc(/C=C/c2ccccc2)nc2ccccc12` [4a, (E)-N-phenyl-2-styrylquinoline-4-carboxamide], for which the IC50 in test [1], in [2], in [3], in test [4] and in test [5] was above 10 µM throughout.
Take `O=C(Nc1ccc([N+](=O)[O-])c(C(F)(F)F)c1)c1cc(/C=C/c2ccc(Cl)cc2)nc2ccccc12` [4w, (E)-2-(4-chlorostyryl)-N-(4-nitro-3-(trifluoromethyl)phenyl)quinoline-4-carboxamide]: the IC50 in test [1] is 8.25 ± 0.67 µM; in test [2] it was above 10 µM; in [3], above 10 µM; in test [4] it was 3.56 ± 0.44 µM; in [5], above 10 µM; in [6] it was 3.2 to 8.97 µM.
Take `O=C(Nc1ccc(Cl)cc1)c1cc(/C=C/c2ccc(Cl)cc2)nc2ccccc12` [4af, (E)-N-(4-chlorophenyl)-2-(4-chlorostyryl)quinoline-4-carboxamide]: the IC50 in test [1] was 4.45 ± 0.53 µM; in test [2], above 10 µM; in [3], above 10 µM; in test [4], 4.61 ± 0.24 µM; in test [5] it was above 10 µM.
On to `O=C(Nc1ccc(C(F)(F)F)cc1)c1cc(/C=C/c2ccccc2)nc2ccccc12` [4h, (E)-2-styryl-N-(4-(trifluoromethyl)phenyl)quinoline-4-carboxamide], for which the 50% inhibitory concentration (IC50) in test [1] was 7.09 ± 0.25 µM; in test [2], above 10 µM; in [3], above 10 µM; in test [4], 8.97 ± 0.75 µM; in test [5], above 10 µM; in test [6], 3.2 to 8.97 µM.
Turning to `COc1cc(/C=C/c2cc(C(=O)Nc3ccccc3)c3ccccc3n2)cc(OC)c1OC` [4k, (E)-N-phenyl-2-(3,4,5-trimethoxystyryl)quinoline-4-carboxamide], the half-inhibitory concentration (IC50) was 5.33 ± 0.52 µM in test [1]; above 10 µM in test [2]; above 10 µM in test [3]; above 10 µM in test [4]; above 10 µM in test [5].
With `COc1cc(/C=C/c2cc(C(=O)Nc3cccc(Cl)c3)c3ccccc3n2)cc(OC)c1OC` [4p, (E)-N-(3-chlorophenyl)-2-(3,4,5-trimethoxystyryl)quinoline-4-carboxamide], the IC50 in [1] was 4.46 ± 0.37 µM; in [2] it was 5.7 ± 0.1 µM; in test [3], 8.31 ± 0.64 µM; in [4] it was 9.06 ± 0.59 µM; in [5], above 10 µM.
